Consider six molecules from ChEMBL document CHEMBL3232704, “Discovery of mixed type thymidine phosphorylase inhibitors endowed with antiangiogenic properties: synthesis, pharmacological evaluation and molecular docking study of 2-thioxo-pyrazolo[1,5-a][1,3,5]triazin-4-ones. Part II” (Eur J Med Chem, 2014).

A short description of the data set: Cytotoxicity against human MDA-MB-231 cells assessed as cell viability at 25 to 100 uM after 72 hrs by MTT assay relative to control. It counts as cell-based. The conditions noted are these: read-out: Activity. (In general: Formazan colour is commonly taken as a measure of viable cells.)

On to `NC(=S)Nc1nn2c(=O)[nH]c(=S)[nH]c2c1Cc1ccc(C(F)(F)F)cc1`, for which the viability at 72 h, up to 100 µM was 80%.

In the case of `O=c1[nH]c(=S)[nH]c2cc(-c3ccc(Cl)c(Cl)c3)nn12`, the viability at 72 h, up to 100 µM was 80%.

For the molecule `O=c1[nH]c(=O)c2cc[nH]c2[nH]1` [7-DEAZAXANTHINE], the viability at 72 h, up to 100 µM was determined as 80%.

Turning to `NC(=S)Nc1nn2c(=O)[nH]c(=S)[nH]c2c1Cc1ccc(-c2ccccc2)cc1`, the viability at 72 h, up to 100 µM stood at 80%.

For `NC(=S)Nc1nn2c(=O)[nH]c(=S)[nH]c2c1Cc1cccc2ccccc12`, the viability at 72 h, up to 100 µM amounted to 80%.

For `NC(=S)Nc1nn2c(=O)[nH]c(=S)[nH]c2c1Cc1ccc(Oc2ccccc2)cc1`, the viability at 72 h, up to 100 µM stood at 80%.
